Results taken from US20230203081A1, “LINCOSAMIDE ANTIBIOTICS AND USES THEREOF” (President and Fellows of Harvard College, priority 2020, published 2023).
In brackets after ≈: the same amount, converted by molar mass.

Legend:
Type in all cases: cell-based
[1] = test system: K. pneumoniae ATCC 10031; experiment: MIC (broth microdilution or agar dilution, CLSI); conditions: Klebsiella pneumoniae, ATCC10031
Summary of the method: (§1)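 Inoculum for broth microdilution was 5×10^5 CFU/mL final, prepared from overnight 35° C blood-agar subcultures (separate handling for streptococcal and anaerobic strains); MICs read by CLSI broth microdilution or agar dilution.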

[2] = test system: S. pneumoniae MMX 3028 cErmB; experiment: MIC (broth microdilution or agar dilution, CLSI); conditions: Streptococcus pneumoniae, MMX3028CERMB; S. pneumoniae HAV#033; MMX 3028, cErmB; read-out: MIC
Summary of the method: as §1

[3] = test system: S. pneumoniae ATCC 6303; experiment: MIC (broth microdilution or agar dilution, CLSI); conditions: Streptococcus pneumoniae, ATCC6303; S. pneumoniae HAV#351, ATCC 6303; read-out: MIC
Summary of the method: as §1

[4] = test system: K. oxytoca Clinical; experiment: MIC (broth microdilution or agar dilution, CLSI); conditions: Klebsiella oxytoca; K. oxytoca HAV#450; Clinical; read-out: MIC
Summary of the method: as §1

[5] = test system: S. aureus hVISA; experiment: MIC (broth microdilution or agar dilution, CLSI); conditions: Staphylococcus aureus; S. aureus HAV#204, hVISA; read-out: MIC
Summary of the method: as §1

[6] = test system: S. aureus ATCC BAA-1707 (MRSA); experiment: MIC (broth microdilution or agar dilution, CLSI); conditions: Staphylococcus aureus
Summary of the method: as §1

[7] = test system: E. coli ATCC 25922; experiment: MIC (broth microdilution or agar dilution, CLSI); conditions: Escherichia coli, ATCC25922; E. coli HAV#006, ATCC 25922; read-out: MIC
Summary of the method: as §1

[8] = test system: S. pyogenes ATCC 19615; experiment: MIC (broth microdilution or agar dilution, CLSI); conditions: Streptococcus pyogenes, ATCC19615, S. pyogenes HAV#004, ATCC 19615; read-out: MIC
Summary of the method: as §1

[9] = test system: E. coli LptD; experiment: MIC (broth microdilution or agar dilution, CLSI); conditions: Escherichia coli, E. coli HAV#040; LptD; read-out: MIC
Summary of the method: as §1

[10] = test system: E. faecalis MMX 847; cErmB; experiment: MIC (broth microdilution or agar dilution, CLSI); conditions: Enterococcus faecalis; E. faecalis HAV#036, MMX 847; mac-resistant, cErmB; read-out: MIC
Summary of the method: as §1

[11] = test system: S. aureus ATCC 29213; experiment: MIC (broth microdilution or agar dilution, CLSI); conditions: Staphylococcus aureus, ATCC29213, S. aureus HAV#001, ATCC 29213, MP-549; read-out: MIC
Summary of the method: as §1

[12] = test system: S. pneumoniae ATCC 49619; experiment: MIC (broth microdilution or agar dilution, CLSI); conditions: Streptococcus pneumoniae, ATCC49619, S. pneumoniae HAV#003, ATCC 49619; read-out: MIC
Summary of the method: as §1

[13] = test system: S. aureus ATCC 700699; experiment: MIC (broth microdilution or agar dilution, CLSI); conditions: Staphylococcus aureus; S. aureus HAV#202, ATCC 700699 (VISA); read-out: MIC
Summary of the method: as §1

[14] = test system: S. pyogenes MMX 946; cErmB; experiment: MIC (broth microdilution or agar dilution, CLSI); conditions: Streptococcus pyogenes; S. pyogenes HAV#035, MMX 946; cErmB, mac-resistant; read-out: MIC
Summary of the method: as §1

[15] = test system: S. aureus MMX 3035 cErmA; experiment: MIC (broth microdilution or agar dilution, CLSI); conditions: Staphylococcus aureus, MMX3035CERMA; S. aureus HAV#031, MMX 3035; cErmA; read-out: MIC
Summary of the method: as §1

[16] = test system: S. pneumoniae MMX 3031 cMefA; experiment: MIC (broth microdilution or agar dilution, CLSI); conditions: Streptococcus pneumoniae, MMX3031CMEFA, S. pneumoniae HAV#034; MMX 3031, cMefA; read-out: MIC
Summary of the method: as §1

[17] = test system: E. faecalis ATCC 29212; experiment: MIC (broth microdilution or agar dilution, CLSI); conditions: Enterococcus faecalis, ATCC29212, E. faecalis HAV#005, ATCC 29212; read-out: MIC
Summary of the method: as §1

[18] = test system: broad panel of different clinical isolates; experiment: microbe, parasite or virus in culture
Summary of the method: as §1

SMILES: C[C@H]1COc2c(N3CCN(C)CC3)c(F)cc3c(=O)c(C(=O)O)cn1c23 [Levofloxacin]
- MIC [1]: ≤ 0.03 µg/mL
- MIC [2]: 0.5 µg/mL (≈ 1.38 µM)
- MIC [3]: 0.5 µg/mL (≈ 1.38 µM)
- MIC [4]: 0.5 µg/mL (≈ 1.38 µM)
- MIC [5]: 8 µg/mL (≈ 22.1 µM)
- MIC [6]: > 128 µg/mL
- MIC [7]: ≤ 0.06 µg/mL
- MIC [8]: 0.5 µg/mL (≈ 1.38 µM)
- MIC [9]: ≤ 0.06 µg/mL
- MIC [10]: > 64 µg/mL
- MIC [11]: 0.25 µg/mL (≈ 0.692 µM)
- MIC [12]: 1 µg/mL (≈ 2.77 µM)
- MIC [13]: 32 µg/mL (≈ 88.6 µM)
- MIC [14]: 0.5 µg/mL (≈ 1.38 µM)
- MIC [15]: 4 µg/mL (≈ 11.1 µM)
- MIC [16]: 0.5 µg/mL (≈ 1.38 µM)
- MIC [17]: 2 µg/mL (≈ 5.53 µM)
- MIC ([18]; Acinetobacter baumannii, A. baumannii HAV#651, Clinical): 0.125 µg/mL (≈ 0.346 µM)
- MIC ([18]; Acinetobacter baumannii, A. baumannii HAV#652 Clinical): 1 µg/mL (≈ 2.77 µM)
- MIC ([18]; Acinetobacter baumannii, A. baumannii HAV#653, Clinical): 0.25 µg/mL (≈ 0.692 µM)
- MIC ([18]; Acinetobacter baumannii, A. baumannii HAV#654, Clinical): 0.125 µg/mL (≈ 0.346 µM)
- MIC ([18]; Acinetobacter baumannii, A. baumannii HAV#655, Clinical): 0.5 µg/mL (≈ 1.38 µM)
- MIC ([18]; Acinetobacter baumannii, A. baumannii HAV#656, Clinical): 32 µg/mL (≈ 88.6 µM)
- MIC ([18]; Acinetobacter baumannii, A. baumannii HAV#657, Clinical): 0.5 µg/mL (≈ 1.38 µM)
- MIC ([18]; Acinetobacter baumannii, A. baumannii HAV#658, Clinical): 0.25 µg/mL (≈ 0.692 µM)
- MIC ([18]; Acinetobacter baumannii, A. baumannii HAV#659, Clinical): 16 µg/mL (≈ 44.3 µM)
- MIC ([18]; Acinetobacter baumannii, A. baumannii HAV#660, Clinical): 64 µg/mL (≈ 177 µM)
- MIC ([18]; Acinetobacter baumannii, A. baumannii HAV#661, Clinical): 0.125 µg/mL (≈ 0.346 µM)
- MIC ([18]; Acinetobacter baumannii, A. baumannii HAV#662, Clinical): 8 µg/mL (≈ 22.1 µM)
- MIC ([18]; Acinetobacter baumannii, A. baumannii HAV#663, Clinical): 0.25 µg/mL (≈ 0.692 µM)
- MIC ([18]; Acinetobacter baumannii, A. baumannii HAV#664, Carbapenem R): 64 µg/mL (≈ 177 µM)
- MIC ([18]; Enterococcus faecalis, E. faecalis HAV#602, Clincal): 1 µg/mL (≈ 2.77 µM)
- MIC ([18]; Enterococcus faecalis, E. faecalis HAV#607, Clinical): 64 µg/mL (≈ 177 µM)
- MIC ([18]; Enterococcus faecalis, E. faecalis HAV#608, Clinical): 64 µg/mL (≈ 177 µM)
- MIC ([18]; Enterococcus faecalis, E. faecalis HAV#609, Clinical): 32 µg/mL (≈ 88.6 µM)
- MIC ([18]; Enterococcus faecalis, E. faecalis HAV#610, Clinical): 8 µg/mL (≈ 22.1 µM)
- MIC ([18]; Enterococcus faecalis, S. faecalis 5060, Line R & Vanco R): 64 µg/mL (≈ 177 µM)
- MIC ([18]; Enterococcus faecalis, S. faecalis 5074, Line R): 8 µg/mL (≈ 22.1 µM)
- MIC ([18]; Enterococcus faecalis, VRE, E. faecalis HAV#251, Clinical VRE): 2 µg/mL (≈ 5.53 µM)
- MIC ([18]; Enterococcus faecalis, VRE, E. faecalis HAV#606, Clinical): 128 µg/mL (≈ 354 µM)
- MIC ([18]; Enterococcus faecium, E. faecium HAV#317, Clinical): 2 µg/mL (≈ 5.53 µM)
- MIC ([18]; Enterococcus faecium, E. faecium HAV#324, Clinical): > 128 µg/mL
- MIC ([18]; Enterococcus faecium, E. faecium HAV#327, Clinical): 4 µg/mL (≈ 11.1 µM)
- MIC ([18]; Enterococcus faecium, E. faecium HAV#328, Clinical): 128 µg/mL (≈ 354 µM)
